Like-named read-outs stand apart in the source and are kept apart here.
Experiments:
human 11β-HSD1 enzyme = target: T1, human 11β-HSD1 enzyme (Homo sapiens, UniProt P28845); test: Cellular in vitro 11β-HSD1 enzyme inhibition assay (SPA, HEK293/11β-HSD1 cells); format: cell-based; conditions: read-out: IC50 for 11β-HSD1 (HEK293)
T1 construct: stably transfected with a construct containing the full-length gene coding for the human 11β-HSD1 enzyme; expressed in transfected cells; HEK293/11β-HSD1 cells)
Experimental: Cellular In Vitro 11β-HSD1 Enzyme Inhibition Assay
Compounds were assessed by a Scintillation Proximity Assay (SPA) performed according to the following protocol:
HEK293 cells were stably transfected with a construct containing the full-length gene coding for the human 11β-HSD1 enzyme to create HEK293/11β-HSD1 cells. Cells were routinely cultured in DMEM containing 10% calf foetal serum, 1% glutamine, and 1% penicillin and streptomycin. Prior to assay, cells were plated at 2×10^4 cells/well in 96-well poly-D-Lys coated flat-bottomed microplates and incubated in 5% CO2, 95% O2 at 37° C. for 24 hours. The media in each well was removed immediately before assay.
Compounds to be tested were dissolved in DMSO at 10 mM and serially diluted into water containing 10% DMSO. Diluted compounds at a volume of 10 μL were added to wells of a 96-well V-bottomed microplate. A solution of DMEM, 1% glutamine, 1% penicillin and streptomycin, and 22 nM tritiated cortisone was prepared and 90 μL added to each well of the assay plate. This solution (100 μL/well) was transferred to the plate containing the cells. The plate was then incubated in 5% CO2, 95% O2 at 37° C. for 2 hours.
Following this incubation, 50 μL of the assay solution was transferred to each well of a 96-well scintillation microplate. A mixture consisting of anti-mouse YSi SPA beads, pre-mixed with anti-cortisol antibody in assay buffer (50 mM Tris.HCl, pH 7.0; 300 mM NaCl; 1 mM EDTA, 5% glycerol) was prepared and 50 μL added to each well of the scintillation microplate. An adhesive strip was applied to the microplate and the plate gently shaken for at least 2 hours at room temperature, and then spun briefly on a low speed centrifuge. The plate was read on a scintillation counter suitable for 96-well microplates. For the calculation of percentage inhibition, a series of wells were added to the plate that represented the assay maximum and the assay minimum: one set that contained substrate without cells (minimum) and another set that contained substrate and cells without any compound (maximum).
The calculation of median inhibitory concentration (IC50) values for the compounds was performed using GraphPad Prism® software. Dose-response curves for each compound were plotted as fractional inhibition and data fitted to the four parameter logistic equation.

human 11β-HSD2 = target: T2, human 11β-HSD2 (Homo sapiens, UniProt P80365); test: Cellular in vitro 11β-HSD2 enzyme inhibition assay (CHO cells); format: cell-based; conditions: CHO cells stably transfected with human 11β-HSD2; Table 1
T2 construct: CHO cells stably transfected with the full-length gene coding for human 11β-HSD2 were used; expressed in transfected cells
T2 sequence (P80365 1-405): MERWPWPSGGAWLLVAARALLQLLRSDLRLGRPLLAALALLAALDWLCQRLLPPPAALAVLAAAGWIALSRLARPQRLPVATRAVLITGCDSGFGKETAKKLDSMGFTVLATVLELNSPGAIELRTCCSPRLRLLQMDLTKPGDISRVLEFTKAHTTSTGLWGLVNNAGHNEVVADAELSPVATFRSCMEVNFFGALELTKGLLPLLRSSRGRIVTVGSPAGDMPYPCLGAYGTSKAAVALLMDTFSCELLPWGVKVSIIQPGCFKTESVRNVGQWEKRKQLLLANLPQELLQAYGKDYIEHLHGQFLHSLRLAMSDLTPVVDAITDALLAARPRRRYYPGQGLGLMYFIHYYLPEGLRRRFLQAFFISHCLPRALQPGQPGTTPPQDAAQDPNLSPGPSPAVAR
Experimental: Cellular In Vitro 11β-HSD2 Enzyme Inhibition Assay
Assays were carried out in 96-well microplates containing 1×10^5 cells/well. Controls and compounds were plated as above, so that the final DMSO concentration in each well was 1%. To initiate the assay, 90 μL of a solution of HAMS F-12 medium containing 1% glutamine, 1% penicillin and streptomycin, and 22 nM tritiated cortisol was added to each well of the assay plate. The plate was then incubated in 5% CO2, 95% O2 at 37° C. for 16 hours.
The assay solutions were transferred to glass tubes and 20 μL ethyl acetate added to each tube. Each tube was vortexed thoroughly and the upper layer containing the tritiated steroid transferred to a fresh glass tube. The solvent was evaporated by placing the tubes in a heating block at 65° C. under a stream of Nitrogen gas. 20 μL ethanol was added to each of the dried samples and vortexed briefly. Each sample was applied to a silica TLC plate and the plate dried. The plate was placed vertically in a glass tank containing 92% chloroform:8% ethanol and the solvent allowed to rise up the plate. The plate was dried, placed in an imaging cassette, and overlayed with a tritium imaging plate for 1-2 days. The amount of enzyme inhibition in each sample was determined by measuring the intensity of the substrate and product spots using a phosphoimager.
IC50 values for inhibitors were determined as described for 11β-HSD1.

[1] = In vitro human liver microsomal stability assay; format: in vitro ADME; conditions: human liver microsomes
Experimental: In Vitro Human Liver Microsomal Stability Assay
To predict in vivo metabolism of compounds, the stability of compounds incubated with human liver microsomes in vitro was determined. Human liver microsome preparations were stored at −80° C. and thawed on ice prior to use. The thawed microsomes were diluted to a concentration of 2 mg/mL in 50 mM sodium phosphate, pH 7.4. Reference and test compounds were prepared as 10 mM stocks in 100% DMSO and diluted to 1 mM in acetonitrile before use. Each compound was tested in triplicate as follows:
4 μL of test or reference compound was added to a well of a 24-well microplate and 0.5 mL of 4 mM NADPH added. The plate was then transferred to a shaker for 10 minutes at room temperature. 30 μL of the compound/NADPH solution was transferred to the well of a 96-well microplate and incubated at 37° C. for 5 minutes. 30 μL of human liver microsomes (pre-incubated at 37° C. for 5 minutes) was added to the well containing the compound/NADPH solution and the plate incubated for the selected period of time (typically 0 or 30 minutes). The reaction was stopped by adding 60 μL of ice cold […] trichloroacetic acid. The plate was centrifuged at 1000 rpm for 5 minutes at room temperature and the supernatant transferred to the well of a new 96-well v-bottomed microplate for mass spectrometric analysis.
Samples were analyzed by TSQ Quantum Discovery Tandem Mass Spectrometer and Surveyor Liquid Chromatogram (Thermo, Hemel-Hempstead, UK). 10 μL of each sample was injected in a mobile phase consisting of 60%:40% methanol:5 mM ammonium acetate at a flow rate of 0.5 mL/minute. The column used was a BDS hypersil, C18, 50×2.1 mm with a 5 μm particle size.
Each compound was tuned with a spray voltage of 3000 V and a capillary temperature of 300° C. and values for tube lens, CID and product ions were determined.
The peak area for each compound was measured in triplicate for the 0 and 30 minute samples and the average of each was reported. The percentage remaining after 30 minutes was calculated as the average peak area of the sample after 30 minutes divided by the average peak area at 0 minutes. The RSD was 10% or lower for each compound.

Pharmacokinetics in rat = format: in vivo, male Sprague Dawley rats; conditions: male, Sprague Dawley, whole blood, intravenous 1 mg/kg and oral 10 mg/kg, read-out: % F (% Bioavailability)
Experimental: The pharmacokinetics of certain compounds were determined following intravenous (1 mg/kg) and oral (10 mg/kg) administration to male Sprague Dawley rats. Dosing solution was prepared by mixing each compound with 2% DMSO, 38% PEG-400 and 60% (0.9%) NaCl. Solutions were passed through 0.2 μm filters prior to administration.
Following dosing and at appropriate time points, blood samples were taken from a lateral tail vein and transferred into a tube pre-treated with EDTA. Blood samples were analysed for parent compound by LCMS and the quantity of parent compound remaining determined. Non-compartmental analysis was applied to the data using WinNonlin™ software to determine the pharmacokinetic parameters for each compound.

[2] = HEK293 cells stably transfected with human 11β-HSD1, Table 1

T1 sequence (P28845 whole entry): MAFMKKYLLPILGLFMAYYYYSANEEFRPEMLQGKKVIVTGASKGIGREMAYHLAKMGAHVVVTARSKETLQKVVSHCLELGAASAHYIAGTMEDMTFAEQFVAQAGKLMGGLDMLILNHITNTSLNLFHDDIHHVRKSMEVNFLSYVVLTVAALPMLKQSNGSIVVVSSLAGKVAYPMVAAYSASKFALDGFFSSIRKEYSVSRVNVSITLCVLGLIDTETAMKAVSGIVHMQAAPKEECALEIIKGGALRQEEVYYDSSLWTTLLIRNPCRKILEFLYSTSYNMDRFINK

SMILES	IC50 (human 11β-HSD1 enzyme; [2])	IC50 (human 11β-HSD1 enzyme)	IC50 (human 11β-HSD2)	% Parent Remaining at 30 min [1]	bioavailability (Pharmacokinetics in rat)
O=C(c1csc(-c2cn[nH]c2)c1)N1CCC(O)(c2ccccc2)CC1 [AA-01, (4-Hydroxy-4-phenyl-piperidin-1-yl)-[5-(1H-pyrazol-4-yl)-thiophen-3-yl]-methanone]	0.208 µM	≤ 0.5 µM	> 10 µM	+++ (61-100% +++)	31 to 100%
O=C(c1csc(-c2cn[nH]c2)c1)N1CCC(O)(c2ccccc2F)CC1 [AA-04]	0.044 µM	≤ 0.5 µM	> 10 µM	+++ (61-100% +++)	31 to 100%
O=C(c1csc(-c2cn[nH]c2)c1)N1C2CCC1CC(O)(c1ccccc1)C2 (stereo not shown) [AA-06]	0.021 µM	≤ 0.5 µM	> 10 µM	+++ (61-100% +++)	11 to 30%
O=C(c1csc(-c2cn[nH]c2)c1)N1C2CCC1CC(O)(c1ccccc1Cl)C2 (stereo not shown) [AA-30]	0.015 µM	≤ 0.5 µM	> 10 µM	++ (31-60% ++)	–
O=C(c1csc(-c2cn[nH]c2)c1)N1CCC(F)(c2cc(F)ccc2Cl)CC1 [AA-37]	0.035 µM	≤ 0.5 µM	> 10 µM	++ (31-60% ++)	–
COc1ccccc1C1CCN(C(=O)c2csc(-c3cn[nH]c3)c2)CC1 [BB-03]	0.107 µM	≤ 0.5 µM	> 10 µM	+ (0-30% +)	–
O=C(c1csc(-c2cn[nH]c2)c1)N1C2CCC1CC(c1ccccc1)C2 (stereo not shown) [BB-08]	0.114 µM	≤ 0.5 µM	> 10 µM	++ (31-60% ++)	–

Second part, the compound after the results:

IC50 (human 11β-HSD1 enzyme; [2])	IC50 (human 11β-HSD1 enzyme)	IC50 (human 11β-HSD2)	% Parent Remaining at 30 min [1]	bioavailability (Pharmacokinetics in rat)	SMILES
–	≤ 0.5 µM	–	+++ (61-100% +++)	31 to 100%	O=C(c1csc(-c2cn[nH]c2)c1)N1CCC(O)(c2ccc(Cl)cc2)CC1 [AA-02]
0.01 µM	≤ 0.5 µM	> 10 µM	++ (31-60% ++)	31 to 100%	O=C(c1csc(-c2cn[nH]c2)c1)N1CCC(O)(c2ccccc2Cl)CC1 [AA-08]
–	0.5 to 1 µM	–	+++ (61-100% +++)	31 to 100%	O=C(c1csc(-c2cn[nH]c2)c1)N1CCC(F)(c2ccccc2)CC1 [AA-17]
0.104 µM	≤ 0.5 µM	> 10 µM	++ (31-60% ++)	–	O=C(c1csc(-c2cn[nH]c2)c1)N1CCC(F)(c2ccccc2F)CC1 [AA-18]
0.038 µM	≤ 0.5 µM	> 10 µM	+++ (61-100% +++)	–	Cc1cccc(F)c1C1(O)CCN(C(=O)c2csc(-c3cn[nH]c3)c2)CC1 [AA-22]
0.019 µM	≤ 0.5 µM	> 10 µM	+ (0-30% +)	–	COC1(c2ccccc2Cl)CCN(C(=O)c2csc(-c3cn[nH]c3)c2)CC1 [AA-33]
0.042 µM	≤ 0.5 µM	> 10 µM	+ (0-30% +)	–	O=C(c1csc(-c2cn[nH]c2)c1)N1CCC(F)(c2ccccc2Cl)CC1 [AA-36]
